# Values quoted from earlier work as cited in patent publication US20100285098A1, “ADHERING TROCHES WITH SANTACID FOR TREATMENT OF THROAT ESOPHAGUS AND STOMACH” (priority 2007, published 2010).
absorbed into the blood (delivered to the stomach such as by capsule),inhaled dose systemically absorbed (delivered topically by dry powder inhaler),excretion (in vivo),metabolism by the body (in vivo),Compound,suppression of Streptococcus pyogenes (Streptococcus pyogenes),suppression of Helicobacter pylori (Helicobacter pylori),side effects (other than those caused by the delivery vehicle)
–,–,–,–,OC[C@@H](O)[C@H](O)[C@@H](O)CO [xylitol],suppressed,suppressed,–
2%,4-17%,excreted in the urine without change,not metabolized,"CC(=O)N[C@H]1[C@H]([C@H](O)[C@H](O)CO)OC(C(=O)O)=C[C@@H]1N=C(N)N [Zanamavir, zanamavir]",–,–,Rare side effects
